Source: patent US5138069A (E. I. Du Pont de Nemours and Company, priority 1988, dated 1992)
Like-named read-outs stand apart in the source and are kept apart here.

What was measured:
[1] = target: AII receptor; experiment: Angiotensin II receptor binding (displacement of 3H-AII); details: read-out: Angiotensin II Receptor Binding IC50, rat adrenal cortical microsomes, 2 nM 3H-AII, 1 hour, room temperature
Outline: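 The receptor source was rat adrenal cortical microsomes in Tris buffer, incubated with 2 nM ³H-AII plus or minus test compound for 1 h at room temperature. Bound and free ligand were separated by rapid filtration on glass-fibre filters. Filter-bound ³H-AII was counted by scintillation.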

[2] = tested on: Renal Hypertensive Rats; experiment: Antihypertensive effects in renal hypertensive rats; format: in vivo; details: Rattus norvegicus; for minimal effective dose at 10 mg/kg / minimal effective dose at 100 mg/kg: Table 25; for minimal effective dose at 10 mg/kg / minimal effective dose at 3 mg/kg: intravenous; for minimal effective dose at 10 mg/kg: 10 mg/kg or less; for minimal effective dose at 100 mg/kg / minimal effective dose at 30 mg/kg: oral; for minimal effective dose at 100 mg/kg: 100 mg/kg or less; for minimal effective dose at 3 mg/kg / minimal effective dose at 30 mg/kg: Table 26
Outline: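 Renal hypertensive rats (renin-driven AII elevation) dosed orally at 100 mg/kg and/or i.v. via jugular cannula at 10 mg/kg; a second set used 30 mg/kg oral and 3 mg/kg i.v. Arterial pressure recorded continuously via carotid cannula and compared with pretreatment levels.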

[3] = Table 25, tested as sodium salt

Row | IC50 [1, 3] | IC50 ([1]; Table 25) | SMILES | minimal effective dose at 10 mg/kg ([2]; tested as sodium salt) | minimal effective dose at 100 mg/kg ([2]; tested as sodium salt) | minimal effective dose at 10 mg/kg [2] | other results
1 | 560 nM | – | CCCCc1nc(Cl)c(CNC(=O)OCCC)n1Cc1ccc(-c2ccccc2C(=O)O)cc1 [Example 151] | < 10 mg/kg | < 100 mg/kg | – | –
2 | 120 nM | – | CCCCc1nc(CNC(=O)OC)c(Cl)n1Cc1ccc(-c2ccccc2C(=O)O)cc1 [Example 160] | < 10 mg/kg | < 100 mg/kg | – | –
3 | 3000 nM | – | CCCCc1nc(Cl)c(CNC(=O)Nc2cccc3ccccc23)n1Cc1ccc(-c2ccccc2C(=O)O)cc1 [Example 165, 2-n-Butyl-1-[(2'-carboxybiphenyl-4-yl)methyl]-4-chloro-5-(1-naphthylaminocarbonylaminomethyl)-imidazole] | < 10 mg/kg | > 100 mg/kg | – | –
4 | – | 1200 nM | CCCCc1nc(CO)c(Cl)n1Cc1ccc(-c2ccccc2C(=O)O)cc1 [Example 95] | – | – | < 10 mg/kg | minimal effective dose at 100 mg/kg [2]: > 100 mg/kg

Continued, compound first:

Row | SMILES | IC50 [1, 3] | IC50 ([1]; Table 25) | minimal effective dose at 10 mg/kg ([2]; tested as sodium salt) | minimal effective dose at 100 mg/kg ([2]; tested as sodium salt) | minimal effective dose at 10 mg/kg [2] | other results
5 | CCCCc1nc(Cl)c(CC(=O)OC)n1Cc1ccc(N(Cc2ccccc2)C(=O)c2ccccc2NS(=O)(=O)C(F)(F)F)cc1 [Example 76, Methyl 2-butyl-1-[4-(N-benzyl-N-(2-(trifluoromethanesulfonamido)benzoyl)-amino)benzyl]-4-chloroimidazole-5-acetate] | 2700 nM | – | < 10 mg/kg | > 100 mg/kg | – | –
6 | CCCCc1nc(Cl)c(CO)n1Cc1ccc(-c2ccccc2-c2nn[nH]c2C(=O)OC)cc1 [Example 338, 2-n-Butyl-4-chloro-1-[(2'-(5-carbomethoxy-1,2,3-triazol-4-yl)biphenyl-4-yl)methyl]-5-hydroxymethylimidazole] | – | – | – | – | – | IC50 ([1]; Table 26): 260 nM; minimal effective dose at 3 mg/kg [2]: > 3 mg/kg; minimal effective dose at 30 mg/kg [2]: > 30 mg/kg
7 | CCCCc1nc(Cl)c(COC)n1Cc1ccc(-c2ccccc2-c2nnn[nH]2)cc1 [Example 90] | 20 nM | – | < 10 mg/kg | < 100 mg/kg | – | –
8 | CCCCc1nc(Cl)c(/C=C/CO)n1Cc1ccc(NC(=O)c2ccccc2C(=O)O)cc1 [Example 227, 3-[1-(4-(2-Carboxybenzamido)-benzyl)-2-butyl-4-chloroimidazol-5-yl]-propen-1-ol, E isomer] | – | 110 nM | – | – | < 10 mg/kg | –
9 | CCCCSc1ncc(CO)n1Cc1ccc(-c2ccccc2C(=O)O)cc1 [Example 123] | – | 5600 nM | – | – | < 10 mg/kg | minimal effective dose at 100 mg/kg [2]: > 100 mg/kg
10 | CCCCc1nccn1Cc1ccc(NC(=O)c2ccccc2C(=O)O)cc1 [Example 64] | – | 620 nM | – | – | < 10 mg/kg | minimal effective dose at 100 mg/kg [2]: > 100 mg/kg
11 | CCCCc1nc(Cl)c(C(=O)N2CCN(c3ccccc3OC)CC2)n1Cc1ccc(-c2ccccc2-c2nnn[nH]2)cc1 [Example 347, 2-n-Butyl-4-chloro-5-[4-(2-methoxyphenyl)piperazin-1-ylcarbonyl]-1-[(2'-(1H-tetrazol-5-yl)biphenyl-4-yl)methyl]imidazole] | – | – | – | – | – | IC50 ([1]; Table 26): 200 nM; minimal effective dose at 3 mg/kg [2]: < 3 mg/kg; minimal effective dose at 30 mg/kg [2]: < 30 mg/kg
12 | CCCCCCc1nccn1Cc1ccc(NC(=O)c2ccccc2C(=O)O)cc1 [Example 66] | – | 350 nM | – | – | < 10 mg/kg | minimal effective dose at 100 mg/kg [2]: > 100 mg/kg
13 | CCCc1nc(C(=O)OC)c(CO)n1Cc1ccc(-c2ccccc2-c2nnn[nH]2)cc1 [Example 334, 4-Carbomethoxy-5-hydroxymethyl-2-n-propyl-1-[(2'-(1H-tetrazol-5-yl)biphenyl)-methyl]imidazole] | – | – | – | – | – | IC50 ([1]; Table 26): 15 nM; minimal effective dose at 3 mg/kg [2]: < 3 mg/kg; minimal effective dose at 30 mg/kg [2]: < 30 mg/kg
14 | CCCCc1nc(C(F)(F)C(F)(F)F)c(CO)n1Cc1ccc(-c2ccccc2C(=O)O)cc1 [Example 92A, 1-[(2'-carboxybiphenyl-4-yl)methyl]-2-butyl-5-hydroxymethyl-4-pentafluoroethylimidazole] | – | – | – | – | – | IC50 ([1]; Table 26): 40 nM; minimal effective dose at 3 mg/kg [2]: < 3 mg/kg; minimal effective dose at 30 mg/kg [2]: < 30 mg/kg
